In patent US12103915B2, “TEAD inhibitors and methods of uses thereof” (Insilico Medicine IP Limited, priority 2022, dated 2024):

Assays:
TEAD2 = TEAD2 (Homo sapiens, UniProt Q15562); assay: Thermal shift assay TEAD2; assay type: binding
Procedure: (§1) Example B: Thermal Shift Assay
(§2) 1) Prepare a fresh dilution of Protein Thermal Shift™ Dye (Applied Biosystems, 1000×) to 8× by […].
(§3) 2) To ensure the same DMSO concentration, the compounds were diluted as follows: Prepare 10 mM stock solution of compounds;
(§4) The final DMSO concentration was 0.1%
(§5) 10 μM: Diluting stock solution to 100 μM by using PBS.
(§6) 1 μM: Diluting stock solution to 1 mM by using DMSO, then dilute to 10 μM by using PBS.
(§7) TEAD1: the stock concentration was 2.9 mg/ml; the final concentration was 0.2 mg/ml. TEAD2: the stock concentration was 1.8 mg/ml; the final concentration was 0.08 mg/ml.
(§8) 4) Place the appropriate reaction plate or tubes on ice, then prepare the protein melt reactions:
(§9) 5) Pipet each reaction up and down 10 times to mix well.
(§10) 6) Seal the plate with MicroAmp™ Optical Adhesive Film, spin it at 1000 rpm for 1 minute.
(§11) 7) Set up and run on the qPCR instrument.
(§12) Using thermal Shift™ Software v1.3 to analysis.

TEAD3 = TEAD3 (Homo sapiens, UniProt Q99594); assay: Thermal shift assay TEAD3; assay type: binding
Procedure: as §1, §2, §3, §4, §5, §6
TEAD3: the stock concentration was 2.4 mg/ml; the final concentration was 0.1 mg/ml.
as §8, §9, §10, §11, §12

NCI-H226 cells = assay: Cell growth assay (CellTiter-Glo); assay type: cell-based, human; conditions: Homo sapiens, NCI-H226, 168 h, 7 days treatment, CellTiter-Glo luminescence, read-out: H226 CTG IC50
Procedure: Example A: Cell Growth Assay
CellTiter-Glo reagent (CTG reagent, Promega, G7573).
[…] Also seeding an extra plate as Day 0 control measurement. The microplates were incubated at 37° C., 5% CO2 overnight.
Compounds were 3-fold serial diluted in DMSO and final top-concentration was […], 10 points. 0.3% DMSO as vehicle control. In addition, […] of CTG reagent was added into the extra plate and incubated at room temperature for 30 minutes and detected luminescence signals as Day 0 control by using EnVision (PerkinElmer, 2104 Mutilabel Reader).
Incubated other compounds treated plates at 37° C. for another 7 days and […] of CTG reagent was added into the plates and incubated at room temperature for 30 minutes and detected luminescence signals.
Day 0 luminescence signals were used as negative control or baseline. • Signalday0=average luminescence signals of Day 0 control cells. • Signalblank control=average luminescence signals of blank control. • SignalDMSO vehicle control=average luminescence signals of Day 7 DMSO vehicle control cells. • Signalcpds treatment=luminescence signals of Day 7 compounds treatment cells. Inhibition %=1−(Signalcpds treatment−Signalblank control)/(SignalDMSO vehicle control−Signalblank control)*100.
(Inhibitory concentration 50% (IC50) and maximum inhibition % were calculated using dose response curves.

TEAD1 = TEAD1 (Homo sapiens, UniProt P28347); assay: Thermal shift assay TEAD1; assay type: binding
Procedure: as §1, §2, §3, §4, §5, §6, §7, §8, §9, §10, §11, §12

TEAD4 = TEAD4 (Homo sapiens, UniProt Q15561); assay: Thermal shift assay TEAD4; assay type: binding
Procedure: as §1, §2, §3, §4, §5, §6
TEAD4: the stock concentration was 2.3 mg/ml; the final concentration was 0.1 mg/ml.
as §8, §9, §10, §11, §12

TEAD2, sequence (Q15562 whole entry, species assumed): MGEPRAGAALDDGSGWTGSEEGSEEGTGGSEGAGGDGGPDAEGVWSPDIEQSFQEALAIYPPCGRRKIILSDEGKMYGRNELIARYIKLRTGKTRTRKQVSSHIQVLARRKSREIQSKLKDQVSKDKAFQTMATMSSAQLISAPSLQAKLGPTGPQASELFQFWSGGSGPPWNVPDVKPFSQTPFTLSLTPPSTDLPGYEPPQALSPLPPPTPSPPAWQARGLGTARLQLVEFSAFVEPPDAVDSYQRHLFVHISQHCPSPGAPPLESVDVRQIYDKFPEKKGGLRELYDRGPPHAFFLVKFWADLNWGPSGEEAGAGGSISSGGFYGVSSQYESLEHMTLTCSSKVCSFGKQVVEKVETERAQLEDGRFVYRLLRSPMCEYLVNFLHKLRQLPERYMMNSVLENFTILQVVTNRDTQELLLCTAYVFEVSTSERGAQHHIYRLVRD
TEAD4, sequence (Q15561 whole entry, species assumed): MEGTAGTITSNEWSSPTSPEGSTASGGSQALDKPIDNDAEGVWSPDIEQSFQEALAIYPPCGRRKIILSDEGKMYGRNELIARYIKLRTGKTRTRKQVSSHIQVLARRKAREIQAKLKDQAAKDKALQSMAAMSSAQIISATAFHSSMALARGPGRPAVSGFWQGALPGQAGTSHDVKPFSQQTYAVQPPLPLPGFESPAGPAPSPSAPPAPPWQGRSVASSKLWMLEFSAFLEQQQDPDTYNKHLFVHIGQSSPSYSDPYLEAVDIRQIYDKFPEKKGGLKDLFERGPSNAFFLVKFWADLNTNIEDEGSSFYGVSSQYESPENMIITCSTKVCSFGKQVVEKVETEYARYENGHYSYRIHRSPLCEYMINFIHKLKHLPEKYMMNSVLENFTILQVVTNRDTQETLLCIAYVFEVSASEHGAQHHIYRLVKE
TEAD1, sequence (P28347 whole entry, species assumed): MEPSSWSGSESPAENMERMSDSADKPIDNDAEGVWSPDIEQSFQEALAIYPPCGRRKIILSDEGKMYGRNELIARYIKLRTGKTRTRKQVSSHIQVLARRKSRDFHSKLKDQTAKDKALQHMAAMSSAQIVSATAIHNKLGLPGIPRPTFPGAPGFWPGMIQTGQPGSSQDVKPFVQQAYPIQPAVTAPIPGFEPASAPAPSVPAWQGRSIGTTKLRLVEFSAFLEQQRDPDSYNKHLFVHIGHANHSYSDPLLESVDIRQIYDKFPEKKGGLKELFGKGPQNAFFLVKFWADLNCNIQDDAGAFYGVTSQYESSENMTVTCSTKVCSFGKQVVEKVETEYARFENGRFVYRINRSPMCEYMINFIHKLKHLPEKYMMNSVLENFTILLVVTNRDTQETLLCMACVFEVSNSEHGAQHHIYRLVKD
TEAD3, sequence (Q99594 whole entry, species assumed): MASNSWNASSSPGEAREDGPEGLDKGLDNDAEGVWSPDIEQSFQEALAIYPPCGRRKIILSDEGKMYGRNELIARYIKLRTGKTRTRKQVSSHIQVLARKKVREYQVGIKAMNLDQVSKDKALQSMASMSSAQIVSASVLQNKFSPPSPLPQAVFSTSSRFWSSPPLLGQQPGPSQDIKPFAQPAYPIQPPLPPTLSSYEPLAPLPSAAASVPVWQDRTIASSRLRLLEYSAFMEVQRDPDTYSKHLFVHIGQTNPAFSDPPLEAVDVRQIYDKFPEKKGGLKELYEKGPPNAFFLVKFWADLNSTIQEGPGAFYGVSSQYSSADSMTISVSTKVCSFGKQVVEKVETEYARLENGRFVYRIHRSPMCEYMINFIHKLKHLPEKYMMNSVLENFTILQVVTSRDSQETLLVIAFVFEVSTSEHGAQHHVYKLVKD

Row | Structure (SMILES) | TEAD2 ΔTm (TEAD2) [°C] | TEAD3 ΔTm (TEAD3) [°C] | IC50 (NCI-H226 cells) [µM] | TEAD1 ΔTm (TEAD1) [°C] | TEAD4 ΔTm (TEAD4) [°C]
1 | CNC(=O)[C@@H]1CC1c1cc(OCc2ccc(C(F)(F)F)cc2)cc2c1cnn2C (mixture of isomers) [Example 37] | 0.9 | 0.1 | 1 to 30 | 0.2 | 0.1
2 | CNC(=O)[C@@H]1CC1c1cc(-c2ccc(C(F)(F)F)cc2)cc2scnc12 (mixture of isomers) [Example 39] | 0 | 0 | 1 to 30 | 0 | 0
3 | CNS(=O)(=O)[C@@H]1CC1c1cc(Oc2ccc(C(F)(F)F)cc2)cc2cn(C)nc12 (mixture of isomers) [Example 51] | 9.7 | 10.6 | 1 to 30 | 7.5 | 9.1
4 | CNS(=O)(=O)[C@@H]1CC1c1cc(Oc2ccc(C(F)(F)F)cc2)cc2cccnc12 (mixture of isomers) [Example 81] | 9.6 | 8.9 | 0.5 to 1 | 5.5 | 8.2
5 | Cn1cc2cc(OC3CC4(C3)CC(F)(F)C4)cc(C3C[C@H]3C(=O)O)c2n1 (mixture of isomers) [Example 93] | 9.3 | 1.3 | 0.1 to 0.5 | 6.7 | 6.4
6 | CNC(=O)[C@@H]1CC1c1cc(OC2CC3(C2)CC(F)(F)C3)cc2cn(C)nc12 (mixture of isomers) [Example 94] | 6.5 | 0.7 | 0.1 to 0.5 | 3.3 | 2.6
7 | O=C(O)[C@@H]1C[C@H]1c1cc(Oc2ccc(C(F)(F)F)cc2)cc2c1NCCC2 (racemic) [Example 144] | 18.2 | 13.1 | 1 to 30 | 10.6 | 9.9
8 | CNC(=O)[C@@H]1C[C@H]1c1cc(Oc2ccc(C(F)(F)F)cc2)cc2c1NCCC2 (racemic) [Example 145] | 9.9 | 1.0 | 0.1 to 0.5 | 4.8 | 2.9
9 | CNS(=O)(=O)[C@@H]1C[C@H]1c1cc(Oc2ccc(C(F)(F)F)cc2)cc2c1NCCC2 (racemic) [Example 146] | 12.0 | 1.0 | 0.1 to 0.5 | 5.5 | 6.7
10 | CNC(=O)[C@@H]1C[C@H]1c1cc(Oc2ccc(C(F)(F)F)cc2)cc2cn(C)nc12 (single isomer, unassigned) [Example 34a] | 10.2 | 1.4 | 0.1 to 0.5 | 5.2 | 5.2
11 | [2H]C([2H])([2H])NC(=O)[C@@H]1C[C@H]1c1cc(Oc2ccc(C(F)(F)F)cc2)cc2cn(C)nc12 (single isomer, unassigned) [Example 52] | 9.8 | −0.5 | 1 to 30 | 4.7 | 4.3
12 | CC(C)NC(=O)[C@@H]1C[C@H]1c1cc(Oc2ccc(C(F)(F)F)cc2)cc2cn(C)nc12 (single isomer, unassigned) [Example 56a] | 6.5 | −0.3 | 0.5 to 1 | 5.4 | 2.6
13 | Cn1cc2cc(Oc3ccc(C(F)(F)F)cc3)cc([C@H]3C[C@@H]3C(=O)N[C@@H](CO)c3ccccn3)c2n1 (single isomer, unassigned) [Example 59a] | 4.7 | 0.4 | 0.1 to 0.5 | 6.9 | 7.9
14 | Cn1cc2cc(Oc3ccc(C(F)(F)F)cc3)cc([C@@H]3C[C@H]3C(=O)N[C@@H](CO)c3ccccn3)c2n1 (single isomer, unassigned) [Example 59b] | 11.3 | 13.1 | 0.1 to 0.5 | 9.4 | 15.6

The next lines start with the values.

Row | TEAD2 ΔTm (TEAD2) [°C] | TEAD3 ΔTm (TEAD3) [°C] | IC50 (NCI-H226 cells) [µM] | TEAD1 ΔTm (TEAD1) [°C] | TEAD4 ΔTm (TEAD4) [°C] | Structure (SMILES)
15 | 0.8 | 0.5 | 0.1 to 0.5 | 1.1 | 0.2 | CNC(=O)[C@@H]1CC1c1cc(-c2ccc(C(F)(F)F)cc2)cc2cccnc12 (mixture of isomers) [Example 38]
16 | 9 | 7.2 | < 0.1 | 8.3 | 8.6 | CC(C)NC(=O)[C@@H]1CC1c1cc(Oc2ccc(C(F)(F)F)cc2)cc2cn(C)nc12 (mixture of isomers) [Example 56]
17 | 9.4 | 12.4 | 0.1 to 0.5 | 7.6 | 14 | CC(NC(=O)[C@@H]1CC1c1cc(Oc2ccc(C(F)(F)F)cc2)cc2cn(C)nc12)c1ccccn1 (mixture of isomers) [Example 57]
18 | 11.1 | 0.4 | 0.1 to 0.5 | 9.2 | 6.6 | CNC(=O)[C@@H]1CC1c1cc(Oc2ccc(C(F)(F)F)cc2)cc2cn(C3CC3)nc12 (mixture of isomers) [Example 78]
19 | 12.3 | 1.0 | 0.1 to 0.5 | 8.1 | 7.7 | CNC(=O)[C@@H]1CC1c1cc(Oc2ccc(C(F)(F)F)cc2)cc2cn(C(F)F)nc12 (mixture of isomers) [Example 79]
20 | 10.5 | 5.1 | 0.1 to 0.5 | 6.0 | 6.2 | CNC(=O)[C@@H]1CC1c1cc(Oc2ccc(C(F)(F)F)cc2)cc2cccnc12 (mixture of isomers) [Example 80]
21 | 13.7 | 9.8 | < 0.1 | 9.2 | 10.5 | [2H]C([2H])([2H])NC(=O)[C@H]1CC1c1cc(Oc2ccc(C(F)(F)F)cc2)cc2cn(C)nc12 (single isomer, unassigned) [Example 53]
22 | 9.8 | 1.2 | < 0.1 | 8.5 | 9.5 | C[C@@H](CO)NC(=O)[C@@H]1CC1c1cc(Oc2ccc(C(F)(F)F)cc2)cc2cn(C)nc12 (single isomer, unassigned) [Example 54]
23 | 11.1 | 10.2 | < 0.1 | 11.3 | 11.5 | C[C@H](CO)NC(=O)[C@@H]1CC1c1cc(Oc2ccc(C(F)(F)F)cc2)cc2cn(C)nc12 (single isomer, unassigned) [Example 55]
24 | 10.0 | 8.1 | < 0.1 | 9.1 | 12.5 | CC(C)NC(=O)[C@H]1C[C@@H]1c1cc(Oc2ccc(C(F)(F)F)cc2)cc2cn(C)nc12 (single isomer, unassigned) [Example 56b]
25 | 12.7 | 11.2 | < 0.1 | 9.5 | 12.3 | Cn1cc2cc(Oc3ccc(C(F)(F)F)cc3)cc([C@@H]3C[C@H]3C(=O)N3CC(C)(O)C3)c2n1 (single isomer, unassigned) [Example 60]
